The results in this text go back to patent publication US7560466B2, “Methods of treating or preventing autoimmune diseases with 2,4-pyrimidinediamine compounds” (Rigel Pharmaceuticals, Inc., priority 2003, dated 2009).

The subject of experiment [1] is cultured human mast cells (CHMC), IgE-induced degranulation. Kind of experiment: CHMC low cell density IgE activation: tryptase assay. Type of experiment: cell-based. The method, boiled down: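 Tryptase release read fluorogenically (30 min, room temperature) from supernatants of anti-IgE-challenged cultured human mucosal mast cells derived from umbilical cord CD34+ cells, at low density of 1000–1500 cells/well.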

Experiment [2] has as its system cultured human mast cells (CHMC), ionomycin-induced degranulation. Kind of experiment: CHMC low cell density ionomycin activation: tryptase assay. Type of experiment: cell-based. Conditions: ionomycin activation, read-out: LD Tryptase, CHMC, Iono, 3pt.
[3] abbreviates: CHMC low cell density, 3pt, read-out: LD Tryptase, CHMC, IgE, 3pt.
Where [4] appears, read: CHMC low cell density, 8pt, read-out: LD Tryptase, CHMC, IgE, 8pt.
Where [5] appears, read: low cell density CHMC, 3-point, read-out: LD Tryptase, CHMC, IgE, 3pt.
The mark [6] stands for this setting: low cell density CHMC, 8-point, read-out: LD Tryptase, CHMC, IgE, 8pt.

Where two headings read alike, the source gives them in different places.

With `COC(=O)Cn1ccc2cc(Nc3ncc(F)c(Nc4ccc5c(c4)NC(=O)C(C)(C)O5)n3)ccc21` [Compound 643, N4-(2,2-Dimethyl-3-oxo-4H-benz[1,4]oxazin-6-yl)-5-fluoro-N2-[1-(methoxycarbonylmethylene)indol-5-yl]-2,4-pyrimidinediamine], the IC50 was under 10 µM in experiment [1] (setting [3]); under 10 µM in experiment [1] (setting [4]); over 10 µM in experiment [2] (CHMC low cell density, 3pt).

For `COC(=O)Cn1ccc2cc(Nc3ncc(F)c(Nc4ccc5c(c4)OCCO5)n3)ccc21` [Compound 647, N4-(3,4-Ethylenedioxyphenyl)-5-fluoro-N2-[1-(methoxycarbonylmethylene)indol-5-yl]-2,4-pyrimidinediamine], the IC50 was under 10 µM in experiment [1] (setting [3]); under 10 µM in experiment [1] (setting [4]); over 10 µM in experiment [2] (CHMC low cell density, 3pt).

With `CNC(=O)Cn1ccc2ccc(Nc3ncc(F)c(Nc4ccc5c(c4)OCCO5)n3)cc21` [Compound 649, N4-(3,4-Ethylenedioxyphenyl)-5-fluoro-N2-[1-(N-methylamino)carbonylmethyleneindol-6-yl]-2,4-pyrimidinediamine], the IC50 in experiment [1] (setting [3]) was under 10 µM; in experiment [1] (setting [4]), under 10 µM; in experiment [2] (CHMC low cell density, 3pt), over 10 µM.

In the case of `CC1(C)Oc2ccc(Nc3nc(Nc4ccc5c(cnn5CCCNS(C)(=O)=O)c4)ncc3F)nc2NC1=O` [Compound 836, N4-(2,2-Dimethyl-3-oxo-4H-5-pyrid[1,4]oxazin-6-yl)-5-fluoro-N2-[1-[3-(N-methylsulfonylamino)propyl]indazol-5-yl]-2,4-pyrimidinediamine], the IC50 was under 10 µM in experiment [1] (setting [3]); under 10 µM in experiment [1] (setting [4]); over 10 µM in experiment [2] (CHMC low cell density, 3pt).

As to `Cc1cc(Nc2ncc(F)c(Nc3ccc4c(n3)NC(=O)C(C)(C)O4)n2)cc(Cl)c1O` [Compound 996, N2-(3-Chloro-4-hydroxy-5-methylphenyl)-N4-(2,2-dimethyl-3-oxo-4H-5-pyrid[1,4]oxazin-6-yl)-5-fluoro-2,4-pyrimidinediamine], the IC50 in experiment [1] (setting [3]) was under 10 µM; in experiment [1] (setting [4]), under 10 µM; in experiment [2] (CHMC low cell density, 3pt), over 10 µM.

On to `CNC(=O)COc1cccc(Nc2ncc(F)c(Nc3ccc4c(c3)NCC(C)(C)O4)n2)c1` [Compound 1000, N4-(3,4-Dihydro-2,2-dimethyl-4H-benz[1,4]oxazin-6-yl)-5-fluoro-N2-[3-(N-methylamino)carbonylmethyleneoxyphenyl]-2,4-pyrimidinediamine], for which the IC50 was under 10 µM in experiment [1] (setting [4]) and under 10 µM in experiment [2] (CHMC low cell density, 3pt).

As for `Cc1ccccc1Nc1ncc(F)c(Nc2ccc3c(n2)NC(=O)C(C)(C)O3)n1` [Compound 1004, N4-(2,2-Dimethyl-3-oxo-4H-5-pyrid[1,4]oxazin-6-yl)-5-fluoro-N2-(2-methylphenyl)-2,4-pyrimidinediamine], the IC50 in experiment [1] (setting [3]) is under 10 µM; in experiment [2] (CHMC low cell density, 3pt), over 10 µM.

`CN1C(=O)C(C)(C)Oc2ccc(N(C)c3nc(Cl)ncc3F)nc21` [Compound 1005, 2-Chloro-5-fluoro-N4-methyl-N4-(3-oxo-2,2,4-trimethyl-5-pyrid[1,4]oxazin-6-yl)-4-pyrimdinea mine]: the IC50 in experiment [1] (setting [3]) is under 10 µM; in experiment [2] (CHMC low cell density, 3pt), over 10 µM.

Take `CN1C(=O)C(C)(C)Oc2ccc(Nc3nc(Cl)ncc3F)nc21` [Compound 1006, 2-Chloro-5-fluoro-N4-(3-oxo-2,2,4-trimethyl-5-pyrid[1,4]oxazin-6-yl)-4-pyrimidinea mine]: the IC50 in experiment [1] (setting [3]) was over 10 µM; in experiment [2] (CHMC low cell density, 3pt), over 10 µM.

On to `COc1c(C)cc(Nc2ncc(F)c(Nc3ccc4c(n3)N(C)C(=O)C(C)(C)O4)n2)cc1Cl` [Compound 1009, N2-(3-Chloro-4-methoxy-5-methylphenyl)-5-fluoro-N4-(3-oxo-2,2,4-trimethyl-5-pyrid[1,4]oxazin-6-yl)-2,4-pyrimidinediamine], for which the IC50 is under 10 µM in experiment [1] (setting [3]); under 10 µM in experiment [1] (setting [4]); over 10 µM in experiment [2] (CHMC low cell density, 3pt).

For `CCOc1c(C)cc(Nc2ncc(F)c(Nc3ccc4c(n3)NC(=O)C(C)(C)O4)n2)cc1Cl` [Compound 1010, N2-(3-Chloro-4-ethoxy-5-methylphenyl)-N4-(2,2-dimethyl-3-oxo-4H-5-pyrid[1,4]oxazin-6-yl)-5-fluoro-2,4-pyrimidinediamine], the IC50 in experiment [1] (setting [3]) was under 10 µM; in experiment [2] (CHMC low cell density, 3pt), over 10 µM.

On to `CN1C(=O)C(C)(C)Oc2ccc(Nc3nc(Nc4cccc(-c5ncco5)c4)ncc3F)nc21` [Compound 1012, 5-Fluoro-N2-[3-(oxazol-2-yl)phenyl]-N4-[3-oxo-2,2,4-trimethyl-5-pyrid[1,4]oxazin-6-yl]-2,4-pyrimidinediamine], for which the IC50 in experiment [1] (setting [3]) is under 10 µM; in experiment [1] (setting [4]), under 10 µM; in experiment [2] (CHMC low cell density, 3pt), over 10 µM.

Consider `CN1C(=O)C(C)(C)Oc2ccc(Nc3nc(Nc4ccc(-c5ncco5)cc4)ncc3F)nc21` [Compound 1013, 5-Fluoro-N2-[4-(oxazol-2-yl)phenyl]-N4-[3-oxo-2,2,4-trimethyl-5-pyrid[1,4]oxazin-6-yl]-2,4-pyrimidinediamine], for which the IC50 in experiment [1] (setting [3]) is under 10 µM; in experiment [2] (CHMC low cell density, 3pt), over 10 µM.

In the case of `CCOC(=O)COc1c(C)cc(Nc2ncc(F)c(Nc3ccc4c(c3)NC(=O)C(C)(C)O4)n2)cc1Cl` [Compound 1014, N2-[3-Chloro-4-ethoxycarbonylmethyleneoxy-5-methylphenyl]-N4-(2,2-dimethyl-3-oxo-4H-benz[1,4]oxazin-6-yl)-5-fluoro-2,4-pyrimidinediamine], the IC50 in experiment [1] (setting [5]) was under 10 µM; in experiment [1] (setting [6]), under 10 µM; in experiment [2] (low cell density CHMC, 3-point), under 10 µM.

`CNC(=O)COc1cccc(Nc2ncc(F)c(Nc3ccc4c(n3)N(C)C(=O)C(C)(C)O4)n2)c1` [Compound 1015, 5-Fluoro-N2-[3-(N-methylamino)carbonylmethyleneoxyphenyl]-N4-[3-oxo-2,2,4-trimethyl-5-pyrid[1,4]oxazin-6-yl]-2,4-pyrimidinediamine]: the IC50 in experiment [1] (setting [5]) is under 10 µM; in experiment [1] (setting [6]), under 10 µM; in experiment [2] (low cell density CHMC, 3-point) it was over 10 µM.

As for `CN1C(=O)C(C)(C)Oc2ccc(Nc3nc(Nc4cccc(-c5cnco5)c4)ncc3F)nc21` [Compound 1017, 5-Fluoro-N2-[3-(oxazol-5-yl)phenyl]-N4-[3-oxo-2,2,4-trimethyl-5-pyrid[1,4]oxazin-6-yl]-2,4-pyrimidinediamine], the IC50 was under 10 µM in experiment [1] (setting [5]); under 10 µM in experiment [1] (setting [6]); over 10 µM in experiment [2] (low cell density CHMC, 3-point).

Turning to `CNC(=O)COc1cccc(Nc2ncc(F)c(N(C)c3ccc4c(c3)NC(=O)C(C)(C)O4)n2)c1` [Compound 1022, N4-(2,2-Dimethyl-3-oxo-4H-benz[1,4]oxazin-6-yl)-5-fluoro-N4-methyl-N2-[3-(N-methylamino)carbonylmethyleneoxyphenyl]-2,4-pyrimidinediamine], the IC50 in experiment [1] (setting [5]) is under 10 µM; in experiment [1] (setting [6]), under 10 µM; in experiment [2] (low cell density CHMC, 3-point) it was over 10 µM.

On to `Cc1cc(Nc2ncc(F)c(Nc3ccc4c(n3)NC(=O)C(C)(C)O4)n2)cc(Cl)c1OC1CCCC1` [Compound 1027, N2-(3-Chloro-4-cyclopentyloxy-5-methylphenyl)-N4-(2,2-dimethyl-3-oxo-4H-5-pyrid[1,4]oxazin-6-yl)-5-fluoro-2,4-pyrimidinediamine], for which the IC50 in experiment [1] (setting [5]) was under 10 µM; in experiment [2] (low cell density CHMC, 3-point), over 10 µM.

Take `CC1(C)Oc2ccc(Nc3nc(Nc4cccc(-c5ncco5)c4)ncc3F)nc2NC1=O` [Compound 1028, N4-(2,2-Dimethyl-3-oxo-4H-5-pyrid[1,4]oxazin-6-yl)-5-fluoro-N2-[3-(oxazol-2-yl)phenyl]-2,4-pyrimidinediamine]: the IC50 in experiment [1] (setting [5]) was under 10 µM; in experiment [1] (setting [6]), under 10 µM; in experiment [2] (low cell density CHMC, 3-point), over 10 µM.

Regarding `CC1(C)Oc2ccc(Nc3nc(Nc4cccc(-c5cocn5)c4)ncc3F)nc2NC1=O` [Compound 1029, N4-(2,2-Dimethyl-3-oxo-4H-5-pyrid[1,4]oxazin-6-yl)-5-fluoro-N2-[3-(oxazol-4-yl)phenyl]-2,4-pyrimidinediamine], the IC50 is under 10 µM in experiment [1] (setting [5]); under 10 µM in experiment [1] (setting [6]); over 10 µM in experiment [2] (low cell density CHMC, 3-point).

On to `CNC(=O)COc1c(C)cc(Nc2ncc(F)c(Nc3ccc4c(n3)NC(=O)C(C)(C)O4)n2)cc1Cl` [Compound 1037, N2-[3-Chloro-5-methyl-4-(N-methylamino)carbonylmethyleneoxyphenyl]-N4-(2,2-dimethyl-3-oxo-4H-5-pyrid[1,4]oxazin-6-yl)-5-fluoro-2,4-pyrimidinediamine], for which the IC50 in experiment [1] (setting [6]) is under 10 µM; in experiment [2] (low cell density CHMC, 3-point), over 10 µM.

As to `CCOC(=O)COc1c(C)cc(Nc2ncc(F)c(Nc3ccc4c(n3)NC(=O)C(C)(C)O4)n2)cc1C` [Compound 1038, N2-(3,5-Dimethyl-4-ethoxycarbonylmethyleneoxyphenyl)-N4-(2,2-dimethyl-3-oxo-4H-5-pyrid[1,4]oxazin-6-yl)-5-fluoro-2,4-pyrimidinediamine], the IC50 is under 10 µM in experiment [1] (setting [6]) and over 10 µM in experiment [2] (low cell density CHMC, 3-point).

As to `Cc1cc(Nc2ncc(F)c(Nc3ccc4c(n3)NC(=O)C(C)(C)O4)n2)cc(Cl)c1OC(C)C` [Compound 1040, N2-(3-Chloro-4-isopropoxy-5-methylphenyl)-N4-(2,2-dimethyl-3-oxo-4H-5-pyrid[1,4]oxazin-6-yl)-5-fluoro-2,4-pyrimidinediamine], the IC50 in experiment [1] (setting [6]) is over 10 µM; in experiment [2] (low cell density CHMC, 3-point) it was under 10 µM.

Take `CNC(=O)COc1c(C)cc(Nc2ncc(F)c(Nc3ccc4c(n3)NC(=O)C(C)(C)O4)n2)cc1C` [Compound 1041, N2-[3,5-Dimethyl-4-(N-methylamino)carbonylmethyleneoxyphenyl]-N4-(2,2-dimethyl-3-oxo-4H-5-pyrid[1,4]oxazin-6-yl)-5-fluoro-2,4-pyrimidinediamine]: the IC50 in experiment [1] (setting [5]) was under 10 µM; in experiment [1] (setting [6]), under 10 µM; in experiment [2] (low cell density CHMC, 3-point), under 10 µM.
